{"source": "patent US4997847A", "about": "“Biologically active compounds” (Smith Kline & French Laboratories Limited, priority 1987, dated 1991)", "data": [{"biological_target": "T1, TXA2 receptors (Homo sapiens, UniProt P21731)", "T1 construct": "to Washed Human Platelets; endogenous in cells; host or cells: washed human platelets", "T1 sequence (P21731 1-343)": "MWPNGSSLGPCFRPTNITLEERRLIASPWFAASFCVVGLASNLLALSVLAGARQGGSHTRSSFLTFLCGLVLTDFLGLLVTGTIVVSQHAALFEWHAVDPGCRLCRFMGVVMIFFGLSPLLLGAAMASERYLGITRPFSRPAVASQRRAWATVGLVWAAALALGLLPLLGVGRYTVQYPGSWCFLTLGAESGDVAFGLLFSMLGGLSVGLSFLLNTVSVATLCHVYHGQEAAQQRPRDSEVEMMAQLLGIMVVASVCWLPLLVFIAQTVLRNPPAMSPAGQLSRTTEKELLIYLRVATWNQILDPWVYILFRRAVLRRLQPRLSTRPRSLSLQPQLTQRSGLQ", "experiment": "Human platelet binding assay: inhibition of [^125 I]PTA-OH binding to washed human platelets", "conditions": "[^125 I]PTA-OH as receptor ligand, 50% inhibition of specific binding", "excerpt": "As indicated above, compounds of the formula (I) have biological activity that is indicative of an ability to antagonise TXA2 receptors.\nThe platelet binding assay used was essentially the method described by Mais et al, J. Pharm. Exp. Ther., 1985, 235(3), 729-734 where [^125 I]PTA-OH was used as the receptor ligand.\nThe IC50 values represent the concentration which produces a 50% inhibition of specific [^125 I]PTA-OH binding.\nThe activities of the compounds of the present invention in the assay are described in Example 33.\nInhibition of [^125 I]PTA-OH Binding\nto Washed Human Platelets", "units": {"IC50": "nM"}, "values": [{"smiles": "O=C(O)CCCCCCNS(=O)(=O)c1ccccc1", "note": "[Example 1, 7-(Benzenesulphonamido)heptanoic Acid]", "IC50": 2300}, {"smiles": "O=C(O)CCCCCCCNS(=O)(=O)c1ccccc1", "note": "[Example 2, 8-(Benzenesulphonamido)octanoic Acid]", "IC50": 290}, {"smiles": "O=C(O)CCCCCCCNS(=O)(=O)c1ccc(Cl)cc1", "note": "[Example 3, 8-(4-Chlorobenzenesulphonamido)octanoic Acid]", "IC50": 30}, {"smiles": "O=C(O)CCCCCNS(=O)(=O)c1ccccc1", "note": "[Example 4, 6-(Benzenesulphonamido)hexanoic Acid]", "IC50": 61000}, {"smiles": "CC(C)(CCCCCCNS(=O)(=O)c1ccc(Cl)cc1)C(=O)O", "note": "[Example 5, 8-(4-Chlorobenzenesulphonamido)-2,2-dimethyloctanoic Acid]", "IC50": 150}, {"smiles": "O=C(O)CCCCCCCCNS(=O)(=O)c1ccc(Cl)cc1", "note": "[Example 6, 9-(4-Chlorobenzenesulphonamido)nonanoic Acid]", "IC50": 18}, {"smiles": "O=C(O)CCCCCCCCNS(=O)(=O)c1ccccc1", "note": "[Example 7, 9-(Benzenesulphonamido)nonanoic Acid]", "IC50": 280}, {"smiles": "O=C(O)CCCC#CCNS(=O)(=O)c1ccc(Cl)cc1", "note": "[Example 8, 7-(4-Chlorobenzenesulphonamido)hept-5-ynoic Acid]", "IC50": 5400}, {"smiles": "O=C(O)CCC/C=C\\CNS(=O)(=O)c1ccc(Cl)cc1", "note": "[Example 9, (Z)-7-(4-Chlorobenzenesulphonamido)hept-5-enoic Acid]", "IC50": 1600}, {"smiles": "CC(C)(CCCCCCCCNS(=O)(=O)c1ccc(Cl)cc1)C(=O)O", "note": "[Example 10, 2,2-Dimethyl-10-(4-chlorobenzenesulphonamido)decanoic Acid]", "IC50": 470}, {"smiles": "O=C(O)CCCCCCCCCCCNS(=O)(=O)c1ccc(Cl)cc1", "note": "[Example 11, 12-(4-Chlorobenzenesulphonamido)-dedecanoic Acid]", "IC50": 7000}, {"smiles": "CC(C)(CCCCCNS(=O)(=O)c1ccc(Cl)cc1)CC(=O)O", "note": "[Example 12, 8-(4-Chlorobenzenesulphonamido)-3,3-dimethyloctanoic Acid]", "IC50": 600}, {"smiles": "O=C(O)CCCCCCNS(=O)(=O)c1ccc(Cl)cc1", "note": "[Example 13, 7-(4-Chlorobenzenesulphonamido)heptanoic Acid]", "IC50": 270}, {"smiles": "O=C(O)CCCCCCCNS(=O)(=O)c1cccc(Cl)c1", "note": "[Example 14, 8-(3-Chlorobenzenesulphonamido)octanoic Acid]", "IC50": 160}, {"smiles": "O=C(O)CCCCCCCNS(=O)(=O)c1ccc([N+](=O)[O-])cc1", "note": "[Example 15, 8-(4-Nitrobenzenesulphonamido)octanoic Acid]", "IC50": 110}, {"smiles": "O=C(O)CCCCCCCNS(=O)(=O)c1ccc(Br)cc1", "note": "[Example 16, 8-(4-Bromobenzenesulphonamido)octanoic Acid]", "IC50": 20}, {"smiles": "COc1ccc(S(=O)(=O)NCCCCCCCC(=O)O)cc1", "note": "[Example 17, 8-(4-Methoxybenzenesulphonamido)octanoic Acid]", "IC50": 300}, {"smiles": "O=C(O)CCCCCCCNS(=O)(=O)c1ccc(Cl)c(Cl)c1", "note": "[Example 18, 8-(3,4-Dichlorobenzenesulphonamido)octanoic Acid]", "IC50": 70}, {"smiles": "O=C(O)CCCCCCCCCCNS(=O)(=O)c1ccc(Cl)cc1", "note": "[Example 19, 11-(4-Chlorobenzenesulphonamido)undecanoic Acid]", "IC50": 600}, {"smiles": "O=C(O)CCCCCCCCCCNS(=O)(=O)c1cccc(Cl)c1", "note": "[Example 20, 11-(3-Chlorobenzenesulphonamido)undecanoic Acid]", "IC50": 1900}, {"smiles": "Cc1ccc(S(=O)(=O)NCCCCCCCC(=O)O)cc1", "note": "[Example 21, 8-(4-tolylsulphonamido)octanoic acid]", "IC50": 75}, {"smiles": "O=C(O)CCCCCCCCNS(=O)(=O)c1cccc(Cl)c1", "note": "[Example 23, 9-(3-Chlorobenzenesulphonamido)nonanoic Acid]", "IC50": 250}, {"smiles": "O=C(O)CCCCCCCCCNS(=O)(=O)c1ccc(Cl)cc1", "note": "[Example 24, 10-(4-Chlorobenzenesulphonamido)decanoic Acid]", "IC50": 60}, {"smiles": "O=C(O)CCCCCCCNS(=O)(=O)c1ccc(F)cc1", "note": "[Example 25, 8(4-Fluorobenzenesulphonamido)octanoic Acid]", "IC50": 220}, {"smiles": "O=C(O)CCCCCCCCNS(=O)(=O)c1ccc(Br)cc1", "note": "[Example 26, 9-(4-Bromobenzenesulphonamido)nonanoic Acid]", "IC50": 40}, {"smiles": "O=C(O)CCCCCCCNS(=O)(=O)c1ccc(Cl)s1", "note": "[Example 29, 8-(5-Chloro-2-thienylsulphonamido)octanoic Acid]", "IC50": 40}, {"smiles": "CC(C)(CCCCCCCNS(=O)(=O)c1ccc(Cl)cc1)C(=O)O", "note": "[Example 30, 9-(4-Chlorophenylsulphonamido)-2,2-dimethylnonanoic Acid]", "IC50": 360}, {"smiles": "CC(C)(CCCCCNS(=O)(=O)c1ccc(Cl)cc1)C(=O)O", "note": "[Example 31, 7-(4-Chlorophenylsulphonamido)-2,2-dimethylheptanoic Acid]", "IC50": 330}, {"smiles": "O=C(O)CCCCCCCNS(=O)(=O)c1cc(Cl)sc1Cl", "note": "[Example 32, 8-(2,5-Dichloro-3-thienylsulphonamido)octanoic Acid]", "IC50": 650}]}]}
